Measurements: publication PMC7551591, “The Effect of Resveratrol or Curcumin on Head and Neck Cancer Cells Sensitivity to the Cytotoxic Effects of Cisplatin” (Nutrients, 2020)

Assays:
Type in all cases: cell-based, human
HUVEC normal cells [1] = experiment: MTT drug sensitivity (viability) assay, normal cells; settings: 24 h; for IC 25 / IC50: MTT; for IC50: Homo sapiens
Protocol: The MTT assay is based on the ability of viable cells to reduce the reagent 3-(4,5-dimethylthiazol-2-yl)-2,5-diphenyltetrazolium bromide to colored formazan compounds [48]. Because the transformation is only possible in viable cells, the amount of blue formazan is proportional to the number of viable cells and thus, a linear dependence exists between cell activity and absorbance. Cells were seeded in triplicate in 96-well plates at a density of 5000 cells/well, incubated at 37 °C for 24 h. […] After the incubation period, 20 μL MTT (5 mg/mL in PBS) was added and further incubated for 4 h. The supernatant was removed, and the formazan product was analyzed spectrophotometrically (570 nm) after dissolution in DMSO. Wells without cells serve as a blank, and their absorbance was subtracted from the other results. Untreated cells were used as control and their viability was assumed as 100%. Results were expressed as mean values of three determinations ± standard deviation (SD). Data are presented as percent of cell viability and compared to untreated [Viability% = (T − B)/(U − B) × 100, {where T = absorbance of treated cells; U = absorbance of untreated cells, B = absorbance of blank}]. Once percent viability was obtained, the drug response curve was generated, and inhibitory concentration (IC50 and IC25) was calculated using GraphPad Prism version 5.01 [49].
SI values of more than 2 were considered as indicative of high selectivity.
The anticancer cytotoxic activity in vitro was evaluated by the MTT assay. […] The most widely used and informative measure of a drug’s efficacy is IC50-the half-maximal inhibitory concentration. IC50 was determined at half of the difference between the maximum (plateau) and minimum absorbance values, by plotting the absorbance value at 570 nm (Y axis) versus the concentration of the compound analysed (X axis). The IC50 values were reported as a mean of three independent experiments ± standard deviation (S.D.).

[2] = test system: P21 (CDKN1A) gene expression in HUVEC; experiment: Real-time PCR of CDKN1A (P21) gene, normal cells; settings: 24 h, reference gene HPRT, 2^-ΔΔCt vs control
Description: (§1) In order to isolate of total RNA from treated or untreated cells was used TRIzol reagent (Invitrogen)-a monophasic solution of phenol and guanidine isothiocyanate. During the isolation phases, the TRIzol reagent maintains RNA integrity, while disrupting cells and dissolving cell components. The addition of chloroform followed by centrifugation ensures the separation phase of the solution into an aqueous phase and an organic phase. RNA remains in the aqueous phase and is recovered by isopropanol precipitation. The RNA pellet washed once with 75% ice-cold ethanol and entrifuged at 10,000× g for 5 min at 4 °C. The […] is redissolved in nuclease-free water and incubating in a 60 °C water bath for 10 min. The concentration of isolated RNA was assessed using a NanoDrop spectrophotometer ([…], Montchanin, DE, USA). RNA purity was determined by A260/A280 ratios (an […] ratio as close as possible to 2 indicates the presence of highly purified RNA). Reverse transcription of messenger RNA molecules was performed using the High-capacity cDNA Reverse Transcription Kit from Applied Biosystems, using non-specific, randomic primers, following the manufacturer's instructions (Table 1). […] The obtained cDNA was stored at 4 °C and further used in the amplification reaction Real-Time PCR (RT-PCR). […] The samples were analyzed using the formula 2^-ΔΔCt.

[3] = test system: P21 (CDKN1A) gene expression in PE/CA-PJ49; experiment: Real-time PCR of CDKN1A (P21) gene, tumor cells; settings: 24 h, reference gene HPRT, 2^-ΔΔCt vs control
Description: as §1

PE/CA-PJ49 tumor cells = experiment: Annexin V-FITC/PI apoptosis flow cytometry, tumor cells; settings: 24 h
Protocol: (§2) The apoptosis assay was carried out with the Annexin V-FITC kit using the manufacturer’s (BD Pharmingen) protocol. Treated and untreated 1 × 10^6 cells/mL were resuspended in cold binding buffer and staining simultaneously with 5 μL FITC-Annexin V (green fluorescence) and 5 μL propidium iodide (PI) in the dark, at room temperature for 15 min. Then, 400μL of Annexin V binding buffer was added and 10,000 cells/sample were acquired using a BD Canto II flow cytometer. The analysis was performed using DIVA 6.2 software in order to discriminate viable cells (FITC^−PI^−) from necrotic cells […] and early apoptosis (FITC^+PI^−) from late apoptosis.
(§3) Apoptosis can be seen as an efficient method of preventing malignant transformation, as it ensures the removal of cells which present with genetic alterations. Deficient apoptosis can promote the development of cancer, both through the accumulation of cells found during division and the blocking of the removal of cells with high malignant potential genetic variations. The factors which determine the cells to follow one of three possible pathways are not yet known – the start of apoptosis after cellular injury, the repair of the lesion or the continuation of the cellular cycle. Many therapeutical agents have anti-tumoral effects generated by their capacity to activate the apoptotic process. […] The flow cytometric analysis was performed using DIVA 6.2 software and allowed to discriminate viable cells (FITC^−PI^− = Q3) from necrotic cells (FITC^−PI^+ = Q1) and early apoptosis (FITC^+PI^− = Q4) from late apoptosis (FITC^+PI^+ = Q2).

[4] = Annexin V-FITC/PI apoptosis flow cytometry, normal cells; settings: human, HUVEC normal cells, read-out: Q3 (viable cells, FITC−PI−)
Protocol: as §2, §3

HUVEC normal cells [5] = experiment: as above; settings: 24 h; for Apoptoza Tarzie = Q2 (%): late apoptosis; for Apoptoza Totală = Q2+Q4 (%): total apoptosis
Protocol: as §2, §3

Compound: Oc1ccc(C=Cc2cc(O)cc(O)c2)cc1 [RSV, 3,5,4′-trihydroxystilbene]
- IC 25 (HUVEC normal cells [1]): 40.6 ± 3.3 µM
- cell viability (MTT) (HUVEC normal cells [1]; RSV 40 μM vs untreated cells): significantly affected
- IC50 (HUVEC normal cells [1]): 110 ± 8.6 µM
- n-fold P21 gene expression HUVEC ([2]; 40 μM RSV): 0.36
- n-fold P21 gene expression PE/CA-PJ49 ([3]; 40 μM RSV): 3.1
- Early Apoptosis = Q4 (%) (PE/CA-PJ49 tumor cells; 40 μM RSV): 17.7%
- Late Apoptosis = Q2 (%) (PE/CA-PJ49 tumor cells; 40 μM RSV): 9.5%
- Necrosis = Q1 (%) (PE/CA-PJ49 tumor cells; 40 μM RSV): 5.4%
- Total Apoptosis = Q2 + Q4 (%) (PE/CA-PJ49 tumor cells; 40 μM RSV): 27.2%
- viability at 40 µM (PE/CA-PJ49 tumor cells; Homo sapiens, 40 μM RSV, read-out: Q3 (viable cells, FITC−PI−)): 67.4%
- viability at 24 h, 40 μM ([4]; 40 μM RSV): 93.7%
- Early Apoptosis = Q4 (%) (HUVEC normal cells [5]; 40 μM RSV): 4.8%
- Necrosis = Q1 (%) (HUVEC normal cells [5]; 40 μM RSV): 1.2%
- Apoptoza Tarzie = Q2 (%) (HUVEC normal cells [5]; 40 μM RSV): 0.3%
- Apoptoza Totală = Q2+Q4 (%) (HUVEC normal cells [5]; 40 μM RSV): 5.1%

Compound: COc1cc(/C=C/C(=O)CC(=O)/C=C/c2ccc(O)c(OC)c2)ccc1O [CRM, Curcumin]
- IC 25 (HUVEC normal cells [1]): 19.2 ± 2.1 µM
- IC50 (HUVEC normal cells [1]): 59.3 ± 6.1 µM
- n-fold P21 gene expression HUVEC ([2]; 15 μM CRM): 1.39
- n-fold P21 gene expression PE/CA-PJ49 ([3]; 15 μM CRM): 1.2
- Early Apoptosis = Q4 (%) (PE/CA-PJ49 tumor cells; 15 μM CRM): 19.1%
- Late Apoptosis = Q2 (%) (PE/CA-PJ49 tumor cells; 15 μM CRM): 9.1%
- Necrosis = Q1 (%) (PE/CA-PJ49 tumor cells; 15 μM CRM): 6.7%
- Total Apoptosis = Q2 + Q4 (%) (PE/CA-PJ49 tumor cells; 15 μM CRM): 28.2%
- viability at 15 µM (PE/CA-PJ49 tumor cells; Homo sapiens, 15 μM CRM, read-out: Q3 (viable cells, FITC−PI−)): 65.1%
- viability at 24 h, 15 μM ([4]; 15 μM CRM): 90.2%
- Early Apoptosis = Q4 (%) (HUVEC normal cells [5]; 15 μM CRM): 6.7%
- Necrosis = Q1 (%) (HUVEC normal cells [5]; 15 μM CRM): 2.6%
- Apoptoza Tarzie = Q2 (%) (HUVEC normal cells [5]; 15 μM CRM): 0.5%
- Apoptoza Totală = Q2+Q4 (%) (HUVEC normal cells [5]; 15 μM CRM): 7.2%
